Laboratory results published in ChEMBL document CHEMBL4196118, “Discovery of MK-8318, a Potent and Selective CRTh2 Receptor Antagonist for the Treatment of Asthma” (ACS Med Chem Lett, 2018).
Calls of active or inactive are those of the source. No cut-off for these calls is given here.

Key:
[1] = AUC (0 to 6 hrs) in rat at 3 mg/kg, iv; format: ADME, organism-based; set-up: time < 6 hr, dose 3 mg/kg, route intravenous; conditions: in vivo
Cytochrome P450 3A4 = Cytochrome P450 3A4 (Homo sapiens, UniProt P08684); assay: Inhibition of CYP3A4 (unknown origin); format: ADME
Cytochrome P450 2C9 = Cytochrome P450 2C9 (Homo sapiens, UniProt P11712); assay: Inhibition of CYP2C9 (unknown origin); format: ADME
Cytochrome P450 2D6 = Cytochrome P450 2D6 (Homo sapiens, UniProt P10635); assay: Inhibition of CYP2D6 (unknown origin); format: ADME
[2] = molecular target: T1, Nuclear receptor subfamily 1 group I member 2 (Homo sapiens, UniProt O75469); assay: Activation of PXR (unknown origin)
T1 sequence (O75469 whole entry): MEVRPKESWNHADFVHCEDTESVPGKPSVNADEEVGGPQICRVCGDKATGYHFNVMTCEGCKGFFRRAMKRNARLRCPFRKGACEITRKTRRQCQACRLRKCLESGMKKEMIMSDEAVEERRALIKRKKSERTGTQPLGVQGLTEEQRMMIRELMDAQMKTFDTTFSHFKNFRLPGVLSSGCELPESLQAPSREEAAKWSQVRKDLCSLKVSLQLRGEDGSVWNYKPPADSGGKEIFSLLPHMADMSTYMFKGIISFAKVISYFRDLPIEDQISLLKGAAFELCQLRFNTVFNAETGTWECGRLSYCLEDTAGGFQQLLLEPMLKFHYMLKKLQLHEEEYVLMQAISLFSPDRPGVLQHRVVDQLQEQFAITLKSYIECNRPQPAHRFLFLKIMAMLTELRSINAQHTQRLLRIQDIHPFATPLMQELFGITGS

[3] = Clearance in rat plasma at 3 mg/kg, iv; format: ADME, organism-based
[4] = Clearance in dog plasma at 1 mg/kg, iv; format: ADME, organism-based, Canis lupus familiaris
[5] = Clearance in monkey plasma at 1 mg/kg, iv; format: ADME, organism-based, Macaca mulatta; conditions: rhesus monkey
[6] = Volume of distribution in rat at 3 mg/kg, iv; format: ADME, organism-based; conditions: in vivo
[7] = Volume of distribution in dog at 1 mg/kg, iv; format: ADME, organism-based, Canis lupus familiaris; conditions: in vivo
[8] = Volume of distribution in monkey at 1 mg/kg, iv; format: ADME, organism-based, Macaca mulatta; conditions: rhesus monkey, in vivo
[9] = Half life in rat at 3 mg/kg, iv; format: ADME, organism-based; conditions: in vivo
[10] = Half life in dog at 1 mg/kg, iv; format: ADME, organism-based, Canis lupus familiaris; conditions: in vivo
[11] = Half life in monkey at 1 mg/kg, iv; format: ADME, organism-based, Macaca mulatta; conditions: rhesus monkey, in vivo
[12] = AUC in rat at 3 mg/kg, iv; format: ADME, organism-based; conditions: in vivo
[13] = AUC in dog at 1 mg/kg, iv; format: ADME, organism-based, Canis lupus familiaris; conditions: in vivo
[14] = AUC in monkey at 1 mg/kg, iv; format: ADME, organism-based, Macaca mulatta; conditions: rhesus monkey, in vivo
[15] = Cmax in rat at 10 mg/kg, po; format: ADME, organism-based; set-up: dose 10 mg/kg, route oral; conditions: in vivo
[16] = Cmax in dog at 2 mg/kg, po; format: ADME, organism-based, Canis lupus familiaris; set-up: dose 2 mg/kg, route oral; conditions: in vivo
[17] = Cmax in rhesus monkey at 10 mg/kg, po; format: ADME, organism-based, Macaca mulatta; set-up: dose 10 mg/kg, route oral; conditions: in vivo
[18] = Tmax in rat at 10 mg/kg, po; format: ADME, organism-based; conditions: in vivo
[19] = Tmax in dog at 2 mg/kg, po; format: ADME, organism-based, Canis lupus familiaris; conditions: in vivo
[20] = Tmax in rhesus monkey at 10 mg/kg, po; format: ADME, organism-based, Macaca mulatta; conditions: in vivo
[21] = AUC in rat at 10 mg/kg, po; format: ADME, organism-based; conditions: in vivo
[22] = AUC in dog at 2 mg/kg, po; format: ADME, organism-based, Canis lupus familiaris; conditions: in vivo
[23] = AUC in rhesus monkey at 10 mg/kg, po; format: ADME, organism-based, Macaca mulatta; conditions: in vivo
[24] = Oral bioavailability in rat at 10 mg/kg; format: ADME, organism-based; conditions: in vivo
[25] = Oral bioavailability in dog at 2 mg/kg; format: ADME, organism-based, Canis lupus familiaris; conditions: in vivo
[26] = Oral bioavailability in rhesus monkey at 10 mg/kg; format: ADME, organism-based, Macaca mulatta; conditions: in vivo
Ovis aries [27] = assay: Anti-asthmatic activity in sheep lung allergen model assessed as inhibition of antigen-induced late airway response at 1 mg/kg administered as 4 hrs iv infusion starting at 1 hr prior to antigen challenge measured 4 to 8 hrs post antigen challenge; format: functional, organism-based
Ovis aries [28] = assay: Anti-asthmatic activity in sheep lung allergen model assessed as inhibition of antigen-induced airway hyper-responsiveness at 1 mg/kg administered as 4 hrs iv infusion starting at 1 hr prior to antigen challenge measured 24 hrs post antigen challenge; format: functional, organism-based
Rattus norvegicus [29] = assay: Antiinflammatory activity in Brown Norway rat assessed as inhibition of OVA-induced eosinophils levels in BAL cells at 3 mg/kg, po qd for 3 days followed by aerosolized OVA challenge for 30 mins administered 2 hrs post last compound dose on day 3 measured 24 hrs post aerosolized OVA challenge relative to control; format: functional
Rattus norvegicus [30] = assay: Antiinflammatory activity in Brown Norway rat assessed as inhibition of OVA-induced neutrophils levels in BAL cells at 3 mg/kg, po qd for 3 days followed by aerosolized OVA challenge for 30 mins administered 2 hrs post last compound dose on day 3 measured 24 hrs post aerosolized OVA challenge relative to control; format: functional
Rattus norvegicus [31] = assay: Antiinflammatory activity in Brown Norway rat assessed as inhibition of OVA-induced total cell levels in BAL cells at 3 mg/kg, po qd for 3 days followed by aerosolized OVA challenge for 30 mins administered 2 hrs post last compound dose on day 3 measured 24 hrs post aerosolized OVA challenge relative to control; format: functional
Rattus norvegicus [32] = assay: Antiinflammatory activity in Brown Norway rat assessed as inhibition of OVA-induced neutrophils levels in BAL cells at 10 mg/kg, po qd for 3 days followed by aerosolized OVA challenge for 30 mins administered 2 hrs post last compound dose on day 3 measured 24 hrs post aerosolized OVA challenge relative to control; format: functional
Rattus norvegicus [33] = assay: Antiinflammatory activity in Brown Norway rat assessed as inhibition of OVA-induced eosinophils levels in BAL cells at 10 mg/kg, po qd for 3 days followed by aerosolized OVA challenge for 30 mins administered 2 hrs post last compound dose on day 3 measured 24 hrs post aerosolized OVA challenge relative to control; format: functional
Rattus norvegicus [34] = assay: Antiinflammatory activity in Brown Norway rat assessed as inhibition of OVA-induced total cell levels in BAL cells at 10 mg/kg, po qd for 3 days followed by aerosolized OVA challenge for 30 mins administered 2 hrs post last compound dose on day 3 measured 24 hrs post aerosolized OVA challenge relative to control; format: functional
Rattus norvegicus [35] = assay: Antiinflammatory activity in Brown Norway rat assessed as inhibition of OVA-induced eosinophils levels in BAL cells at 30 mg/kg, po qd for 3 days followed by aerosolized OVA challenge for 30 mins administered 2 hrs post last compound dose on day 3 measured 24 hrs post aerosolized OVA challenge relative to control; format: functional
Rattus norvegicus [36] = assay: Antiinflammatory activity in Brown Norway rat assessed as inhibition of OVA-induced neutrophils levels in BAL cells at 30 mg/kg, po qd for 3 days followed by aerosolized OVA challenge for 30 mins administered 2 hrs post last compound dose on day 3 measured 24 hrs post aerosolized OVA challenge relative to control; format: functional
Rattus norvegicus [37] = assay: Antiinflammatory activity in Brown Norway rat assessed as inhibition of OVA-induced total cell levels in BAL cells at 30 mg/kg, po qd for 3 days followed by aerosolized OVA challenge for 30 mins administered 2 hrs post last compound dose on day 3 measured 24 hrs post aerosolized OVA challenge relative to control; format: functional
[38] = molecular target: T2, Prostaglandin D2 receptor 2 (Homo sapiens, UniProt Q9Y5Y4)
T2 sequence (Q9Y5Y4 whole entry): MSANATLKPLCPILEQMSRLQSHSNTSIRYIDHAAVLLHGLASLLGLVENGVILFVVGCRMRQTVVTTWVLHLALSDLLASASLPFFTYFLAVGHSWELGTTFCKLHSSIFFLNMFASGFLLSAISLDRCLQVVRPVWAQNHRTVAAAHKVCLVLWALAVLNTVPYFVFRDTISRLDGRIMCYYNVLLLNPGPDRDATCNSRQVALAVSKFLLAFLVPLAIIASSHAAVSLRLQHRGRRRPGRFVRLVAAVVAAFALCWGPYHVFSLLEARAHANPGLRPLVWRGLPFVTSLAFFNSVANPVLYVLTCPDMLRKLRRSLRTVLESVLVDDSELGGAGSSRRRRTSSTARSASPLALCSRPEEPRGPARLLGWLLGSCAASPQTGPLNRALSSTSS

[39] = molecular target: T2, Prostaglandin D2 receptor 2; remark: listed apart in the source
Description: Antagonist activity at human CRTh2 expressed in CHOK1 cells assessed as inhibition of PGD2-induced beta-arrestin recruitment incubated for 30 mins followed by PGD2 stimulation measured after 60 mins by PathHunter based chemiluminescence assay

[40] = molecular target: T2, Prostaglandin D2 receptor 2; assay: biochemical
Description: Displacement of [3H]PGD2 from human CRTh2 expressed in HEK cell membranes after 60 mins by scintillation counting method

Chain of Cytochrome P450 3A4 (P08684 whole entry): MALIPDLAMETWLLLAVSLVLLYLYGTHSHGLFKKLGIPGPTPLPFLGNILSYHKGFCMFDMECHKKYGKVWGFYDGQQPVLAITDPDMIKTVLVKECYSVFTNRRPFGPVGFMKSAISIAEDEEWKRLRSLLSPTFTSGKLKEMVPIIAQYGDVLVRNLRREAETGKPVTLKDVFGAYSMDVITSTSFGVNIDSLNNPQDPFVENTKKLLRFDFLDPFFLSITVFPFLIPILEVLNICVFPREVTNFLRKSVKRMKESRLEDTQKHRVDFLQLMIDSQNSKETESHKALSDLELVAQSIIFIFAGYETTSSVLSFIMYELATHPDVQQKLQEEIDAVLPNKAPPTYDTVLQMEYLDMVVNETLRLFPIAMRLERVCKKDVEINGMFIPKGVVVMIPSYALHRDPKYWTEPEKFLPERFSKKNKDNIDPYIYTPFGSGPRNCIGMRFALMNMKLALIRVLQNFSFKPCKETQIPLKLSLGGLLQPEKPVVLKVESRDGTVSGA
Chain of Cytochrome P450 2C9 (P11712 whole entry): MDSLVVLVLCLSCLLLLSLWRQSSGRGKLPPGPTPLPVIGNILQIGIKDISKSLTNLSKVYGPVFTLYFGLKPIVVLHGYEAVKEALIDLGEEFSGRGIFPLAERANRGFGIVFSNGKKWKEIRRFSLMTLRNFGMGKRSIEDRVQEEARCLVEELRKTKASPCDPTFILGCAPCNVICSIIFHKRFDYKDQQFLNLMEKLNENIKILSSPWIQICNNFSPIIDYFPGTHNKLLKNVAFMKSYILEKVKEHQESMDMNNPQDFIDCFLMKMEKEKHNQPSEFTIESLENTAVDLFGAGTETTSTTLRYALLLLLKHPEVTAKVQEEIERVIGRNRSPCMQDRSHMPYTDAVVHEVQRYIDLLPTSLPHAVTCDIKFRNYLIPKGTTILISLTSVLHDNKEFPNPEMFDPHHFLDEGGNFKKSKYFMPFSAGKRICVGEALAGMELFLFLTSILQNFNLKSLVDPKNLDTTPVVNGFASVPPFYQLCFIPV
Chain of Cytochrome P450 2D6 (P10635 whole entry): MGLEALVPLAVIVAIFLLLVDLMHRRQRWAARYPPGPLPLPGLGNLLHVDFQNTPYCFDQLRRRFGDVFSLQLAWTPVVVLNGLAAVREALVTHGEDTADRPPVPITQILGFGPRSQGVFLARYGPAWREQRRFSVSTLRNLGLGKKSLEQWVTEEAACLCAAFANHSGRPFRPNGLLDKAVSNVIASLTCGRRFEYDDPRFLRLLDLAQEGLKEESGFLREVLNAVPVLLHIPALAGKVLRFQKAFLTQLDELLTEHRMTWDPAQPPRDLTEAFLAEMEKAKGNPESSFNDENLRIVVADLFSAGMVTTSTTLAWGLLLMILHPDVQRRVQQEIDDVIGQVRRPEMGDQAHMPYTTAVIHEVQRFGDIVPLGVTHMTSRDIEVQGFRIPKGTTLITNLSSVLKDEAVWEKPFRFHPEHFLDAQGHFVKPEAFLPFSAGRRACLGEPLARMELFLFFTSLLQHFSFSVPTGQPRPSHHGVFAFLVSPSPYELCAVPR

O=C(O)CCC(=O)N(C1CC1)[C@H]1c2cc(F)ccc2N(C(=O)c2ccc(OC(F)(F)F)cc2)[C@H]2CCC[C@H]21
AUC(0-t) at 6 h [1]: 3.35 µM·h
inhibition (INH) (Cytochrome P450 3A4): Not Active
inhibition (INH) (Cytochrome P450 2C9): Not Active
inhibition (INH) (Cytochrome P450 2D6): Not Active
Activity [2]: Not Active
clearance [3]: 29.1 mL/min/kg
clearance [4]: 9.4 mL/min/kg
clearance [5]: 16.4 mL/min/kg
Vd [6]: 5.8 L/kg
Vd [7]: 2.4 L/kg
Vd [8]: 5.8 L/kg
half-life [9]: 7.5 h
half-life [10]: 10.4 h
half-life [11]: 12.9 h
AUC [12]: 3.4 µM·h
AUC [13]: 3.46 µM·h
AUC [14]: 1.92 µM·h
Cmax [15]: 2070 nM
Cmax [16]: 2470 nM
Cmax [17]: 5690 nM
Tmax [18]: 0.58 h
Tmax [19]: 0.42 h
Tmax [20]: 0.42 h
AUC [21]: 6.77 µM·h
AUC [22]: 8.51 µM·h
AUC [23]: 6.76 µM·h
bioavailability [24]: 61%
bioavailability [25]: 121%
bioavailability [26]: 28%
inhibition (Ovis aries [27]): Active
inhibition (Ovis aries [28]): Active
inhibition in vivo at 3 mg/kg (Rattus norvegicus [29]): 36%
inhibition in vivo at 3 mg/kg (Rattus norvegicus [30]): 56%
inhibition in vivo at 3 mg/kg (Rattus norvegicus [31]): 52%
inhibition in vivo at 10 mg/kg (Rattus norvegicus [32]): 49%
inhibition in vivo at 10 mg/kg (Rattus norvegicus [33]): 65%
inhibition in vivo at 10 mg/kg (Rattus norvegicus [34]): 68%
inhibition in vivo at 30 mg/kg (Rattus norvegicus [35]): 58%
inhibition in vivo at 30 mg/kg (Rattus norvegicus [36]): 77%
inhibition in vivo at 30 mg/kg (Rattus norvegicus [37]): 78%
IC50 [38]: 8 nM
IC50 [39]: 3.5 nM
Ki [40]: 5 nM
